Assay results taken from patent US7938981B2, “Deicing and heat transfer fluid compositions” (Bioamber S.A.S., priority 2009, dated 2011).
Like-named read-outs stand apart in the source and are kept apart here.

Assays:
[1] = Biological Oxygen Demand (BOD5), 5 day test; conditions: 50% (wt.) concentration in water, ratio BOD5 to COD
Description: The oxygen demand of a compound during chemical oxidation and biological degradation is an indication of the persistence of the chemical in the environment. […] BOD is the amount of oxygen required for biological oxidation by bacteria growing under aerobic conditions. The ratio of BOD to COD can be used to assess whether a compound is readily biodegradable. When BOD5 is expressed as a percentage of COD, a BOD5 that is <1% of COD indicates a relatively nonbiodegradable compound and >10% of COD indicates a relatively degradable compound (the subscript “5” denotes a 5 day test).

[2] = 25% (wt.) concentration in water; cited from earlier work
[3] = 50% (wt.) concentration in water, in five days, value with literature reference 17, cited from earlier work

SMILES | Biodegradability (BOD5/COD)% ([1]; listed as Potassium Succinate) [%] | Biodegradability (BOD5/COD)% ([1]; listed as succinate) | Freezing point [2] | Biodegradability (BOD5/COD)% [1] | Biodegradability (BOD5/COD)% ([3]; listed as Potassium formate) [%^17] | Biodegradability (BOD5/COD)% ([3]; listed as potassium formate) [%]
O=C([O-])CCC(=O)[O-].[K+].[K+] [Test No. 1, potassium succinate] | 68 | highly biodegradable | −12.5^14 °C |  |  | 
OCCO [Ethylene Glycol] |  |  | −12.0^20 °C | 61% |  | 
O=C[O-].[K+] [Test No. 3, potassium formate] |  |  | −15.0^17 °C |  | 100 | 100
CC(=O)[O-].[K+] [Test No. 2, potassium acetate] |  |  | −18.0^14 °C | highly biodegradable |  | 
CC(O)CO (stereo not drawn) [Propylene Glycol] |  |  | −11.0^21 °C | 59% |  | 
